# Laboratory results: patent US20260217768A1, “NANOPARTICLE-NHE3 PEPTIDE TO TREAT DIARRHEA” (The Johns Hopkins University, priority 2023, published 2026)
# “Also recorded” adds a separate entry of the source. Where two headings read alike, the source gives them in different places.
# Assays:
# mouse jejunum [1] = details: in vivo
# mouse jejunum [2] = details: in vivo; remark: listed apart in the source
# mouse jejunum [3] = assay: Anti-CD3 monoclonal antibody-induced (TNFα-mediated inflammation) fluid secretion, mouse jejunal loops; type: in vivo
# NHE3 [4] = assay: NHE3 activity in polarized Caco-2/BBe/HA3-NHE3 cells (BCECF); type: cell-based; details: for EC50: Hill equation
# mouse jejunum [5] = assay: Basal net water transport, in vivo perfusion of mouse jejunal loops
# [6] = tested on: CTx-induced electrogenic anion secretion; assay: Short-circuit current (Isc) of CTx-treated mouse jejunal loops, Ussing chamber/voltage clamp; details: for Isc in CTx treated loops compared to CTx in PBS: 400 nM peptide with 1-μg CTx for 6 h, no further secretagogue; for peak increases in Isc with sequential addition of FSK and carbachol: CTx exposed loops, 10-μM FSK then 10-μM CCH serosal, CP-1 vs N3SP-1
# NHE3 [7] = assay: NHE3 activity in PS120/HA3-NHE3/NHERF2 cells (BCECF); type: cell-based, rabbit
# NHE3 [8] = assay: Effect of N-terminal truncations of N3SP-1 on NHE3 activity in human enteroids (BCECF-fluorometry); type: cell-based; details: human duodenal enteroids, Hill equation; for Stimulation of NHE3 Activity: basal NHE3 activity, BCECF-fluorometry; for EC50: stimulation of basal NHE3 activity
# Procedure: (§1) NHE3 activity in PS120, Caco-2/BBe cells and human jejunal enteroids was determined fluorometrically (Photon Technologies Incorporated) using the intracellular pH sensitive dye BCECF, as reported (Levine et al., 1993; Sarker et al., 2008; Foulke-Abel et al., 2020). PS120/HA3-NHE3 cells were seeded on glass cover slips and studied at 70-80% confluency. Caco-2/BBe/HA3-NHE3 cells were grown to confluency on Transwell inserts (polyester, 0.4-μm pore size) and studied approximately 14-16 days pod. Human duodenal enteroid monolayers on Transwell inserts were differentiated for 5 days in the absence of Wnt3a, R-spondin, and noggin as described (Noel et al., 2017; Staab et al., 2020).
# (§2) Rates of Na^+/H^+ exchange were determined as Na^+-dependent alkalinization in the presence of 50-μM HOE-694 (to inhibit all other plasma membrane NHE isoforms) in HCO3-free solutions, with internal calibration using the nigericin/K+ method, as previously described (Sarker et al., 2008; Foulke-Abel et al., 2020). Kinetic analysis was used for PS120 cell studies (expressed as Vmax) and initial rates (ΔpH/min) for Caco-2/BBe cells, mouse intestine in vitro, and human enteroids. For in vitro mouse jejunal transport studies, NHE3 activity (in the presence of 50-μM HOE-694) was measured using SNARF-4F at 37° C. in a perfusion chamber using a two-photon microscope (Olympus FV1000) and 25× objective, as described (Murtazina et al., 2011).
# Concentration dependent effects on NHE3 basal activity was determined using BCECF-fluorometry. Kinetic analysis was determined of extent of stimulation of basal NHE3 activity; analysis was by use of the Hill equation.
# Given the ability of N3SP-1Δ7 to prevent CTx-induced fluid secretion in vivo (FIG. 3E) and to stimulate basal NHE3 activity and prevent cAMP inhibition in human enteroids (FIG. 4C), further studies were carried out with human enteroids to determine the shortest N3SP-1-related peptide that would stimulate human NHE3. A series of N3SP-1 N-terminal truncations was synthesized and concentration-dependent stimulation of NHE3 activity determined using human jejunal enteroids.
# NHE3 [9] = assay: NHE3 activity in mouse jejunum in vitro (two-photon microscope/SNARF-4F); type: cell-based
# mouse ileal loops [10] = assay: Basal fluid absorption in closed mouse ileal loops, nanoparticle-conjugated peptides, with or without Tenapanor; type: in vivo
# Procedure: (§3) All in vivo studies were performed on 8-12 week old C57B1/6N mice anesthetized with isofluorane and kept at 37° C. via heating lamps and rectal thermal probes.
# (§4) Effect on basal fluid transport and effect of Tenapanor. Mice operated on as above had 3-4 cm closed ileal loops inoculated with 150-μL PBS containing 400-nM nanoparticle-CP-2 or -N3SP-1Δ7. After 4 h, the loops were drained and inoculated with 150-μL PBS. 30 min later, the animals were sacrificed and loop weight/length determined. In parallel studies, Tenapanor (10 μM) was present in both incubation periods. Similar to the BODIPY-conjugated peptide studies, the effects of nanoparticle-CP-2 or N3SP-1Δ7 (4 μM) compared to PBS alone were determined on net fluid secretion produced by inoculation of 0.1-μg CTx. The nanoparticle-peptides plus 0.1-μg CTx in 150-μL PBS were inoculated in 3-4 cm long closed ileal loops. Additional controls included loops exposed only to 150-μL PBS and those only exposed to the CTx/PBS. 4 h later, the animals were sacrificed and loop weight/cm length was determined.
# adenylate cyclase-cAMP = assay: cAMP assay in human enteroid monolayers exposed to FSK; type: cell-based; details: nanoparticles with 250-nM peptide, FSK (10 μM) 45 min, CP-2 vs N3SP-1Δ7
# Procedure: Human jejunal enteroid monolayers on Transwell inserts (Corning Cat #: 3470) were differentiated for 5 days and then in serum-free media were exposed apically to nanoparticles containing either 250-nM CP-2 or N3SP-1Δ7. The peptide and polymer in PBS were prepared just before use, allowed to combine for 10 min before being added to the apical surface of enteroid monolayers at room temperature. Monolayers were incubated for 4 hours at 37° C., 5% CO2 incubator before the nanoparticles were removed, then monolayers were washed 3 times with cold PBS and changed to differentiation media and moved to a 37° C. incubator. Differentiation media was removed 24 hours later and washed twice with CMGF-media (Advanced DMEM/F12 with 10-mM Hepes, 10-mM GlutaMax, and 1000 Units/mL Penn/Strep). Next, 100 μL of CMGF-media containing 10-mM Theophylline, 50-μM Cilostazol and 50-μM Rolipram was added to the apical and basolateral surfaces followed by exposure to FSK (10 μM) at 37° C., 5% CO2, for 45 min before apical and basolateral media were collected and cells were lysed in 200-μL 0.1 M HCl for cAMP analysis. CAMP in apical, basolateral, and cells was determined using nonradioactive, CAMP-ELISA kits from ENZO Life Sciences (Loerrach, German), using the acetylation protocol in which the yellow-colored product is inversely proportional to the amount of CAMP present in the sample.
# mouse ileal loops [11] = assay: CTx-induced fluid secretion in closed mouse ileal loops, nanoparticle-conjugated peptides; type: in vivo; details: nanoparticle-peptide 4 μM with 0.1-μg CTx, 4 hours
# Procedure: as §3, §4
# [12] = Nanoparticle characterization: hydrodynamic diameter, zeta potential, stability; type: physicochemical; details: CR5 with peptide, 30:1 polymer:peptide weight ratio
# Procedure: (§5) PBAE polymer and peptide were separately dissolved in pH 7.4 150-mM PBS and combined at a 1:1 volume ratio. Final concentrations of the components were 6-ng/μL peptide and 180-ng/μL polymer (30:1 polymer: peptide weight ratio). Polymer and peptide nanoparticles were allowed to self-assemble at room temperature for 10 minutes. For characterization, nanoparticles were diluted 1:5 in PBS. Hydrodynamic diameter and zeta potential were measured using a Malvern Zetasizer Pro (Malvern Panalytical, Malvern, UK). Stability was assessed by incubating nanoparticles at RT up to 45 minutes then measuring hydrodynamic diameter over 45 minutes. Nanoparticles were made immediately prior to each experiment.
# NHE3 [13] = assay: NHE3 activity in differentiated human enteroid monolayers after nanoparticle delivery of peptide; type: cell-based; details: nanoparticles (250 nM) 18 h, FSK exposure, n=4
# Procedure: as §1, §2
# as §5, with “Nanoparticles were made immediately prior to each experiment.” left out
# NHE3 [14] = assay: NHE3 stimulation, summary statement over models and delivery systems; type: cell-based; details: using either delivery system (maleimide or nanoparticles); read-out: EC50 for stimulation of basal and second messenger inhibited NHE3
molecule,measurement,setting,value
"NHE3 mimetic peptide, rabbit NHE3 aa 568-605: NVDFSTPRPSTVEASVSYLLRESASAVCLDMQSLEQRR [Peptide N3SP-1]",effect on STa-induced intestinal fluid accumulation,mouse jejunum [1],significantly reduced
same,effect on CTx-stimulated net fluid secretion (loop weight/cm),mouse jejunum [2],prevented CTx-stimulated fluid secretion
same,localization of NHE3 in CTx-treated jejunum,mouse jejunum [2],NHE3 was detected on the CTx-treated jejunal BB
same,effect on anti-CD3 antibody-induced luminal fluid accumulation,"mouse jejunum [3]; 400 nM peptide in loop, 200-μg anti-CD3 antibody IP, 2.5 h",prevents fluid secretion
same,stimulation of basal NHE3 activity compared to CP-1,"NHE3 [4]; BODIPY-conjugated peptide 400 nM, Caco-2/BBe/HA3-NHE3 cells",41%
same,EC50,"NHE3 [4]; BODIPY-conjugated peptide added apically, Caco-2/BBe cells, read-out: EC50 of prevention of FSK inhibition of NHE3",157 nM
same,effect on inhibition of NHE3 by FSK,"NHE3 [4]; BODIPY-conjugated peptide pretreatment, FSK (10 μM), Caco-2/BBe cells",prevented inhibition
same,effect on inhibition of NHE3 by carbachol,"NHE3 [4]; BODIPY-conjugated peptide pretreatment, carbachol (10 μM), Caco-2/BBe cells",prevented inhibition
same,concentration of maximal effect on basal NHE3 activity,"NHE3 [4]; BODIPY-conjugated peptide, Caco-2/BBe/HA3-NHE3 cells",400 nM
same,EC50,"NHE3 [4]; BODIPY-conjugated peptide, Caco-2/BBe/HA3-NHE3 cells, read-out: EC50 of stimulation of basal NHE3 activity",152 nM
same,EGF stimulation of NHE3 activity in presence of peptide,"NHE3 [4]; EGF (200 ng/mL), BODIPY-conjugated peptide 400 nM, Caco-2/BBe cells",35%
same,difference in net water transport between N3SP-1 and CP-1 perfused jejunal loops,"mouse jejunum [5]; 400 nM, n=5, p=0.0004",56.6 ± 15.1 µL/min/cm
same,Isc in CTx treated loops compared to CTx in PBS,[6],"slightly, but not significantly, greater; also recorded: not altered"
same,peak increases in Isc with sequential addition of FSK and carbachol,[6],not different
same,stimulation of basal NHE3 activity compared to CP-1,"NHE3 [7]; BODIPY-conjugated peptide 400 nM, PS120/HA3-NHE3/NHERF2 cells",61%
same,effect on inhibition of NHE3 by 4-Br-A23187,"NHE3 [7]; BODIPY-conjugated peptide pretreatment, 0.5-μM A23187, PS120 fibroblasts",prevented inhibition
same,effect on basal NHE3 activity in the absence of BODIPY conjugation,"NHE3 [7]; unconjugated peptide 400 nM, PS120 cells",No stimulatory effect; also recorded: Neither CP-1 nor N3SP-1 altered basal NHE3 activity
same,Stimulation of NHE3 Activity,NHE3 [8],YES (38%)
same,EC50,NHE3 [8],152 nM
same,stimulation of basal NHE3 activity compared to CP-1,NHE3 [9]; BODIPY-conjugated peptide 400 nM,57%
same,effect on inhibition of NHE3 by FSK,"NHE3 [9]; BODIPY-conjugated peptide pretreatment, FSK (10 μM)",prevented inhibition
"CN1Cc2c(Cl)cc(Cl)cc2[C@H](c2cccc(S(=O)(=O)NCCOCCOCCNC(=O)NCCCCNC(=O)NCCOCCOCCNS(=O)(=O)c3cccc([C@@H]4CN(C)Cc5c(Cl)cc(Cl)cc54)c3)c2)C1 [Tenapanor, reference compound]",effect on N3SP-1Δ7 increased baseline fluid absorption,mouse ileal loops [10]; pretreatment with 10-μM Tenapanor,prevented
"CP-1: 21 aa control peptide representing aa 585-605 of rabbit NHE3 (YLLRESASAVCLDMQSLEQRR; UniProt P26432 585-605, looked up, fragment)",effect on STa-induced intestinal fluid accumulation,mouse jejunum [1],not observed
same,effect on CTx-stimulated net fluid secretion (loop weight/cm),mouse jejunum [2],did not alter fluid accumulation
same,localization of NHE3 in CTx-treated jejunum,mouse jejunum [2],NHE3 was internalized
same,effect on anti-CD3 antibody-induced luminal fluid accumulation,"mouse jejunum [3]; mouse, in vivo, ip",increased luminal fluid accumulation
same,EGF stimulation of NHE3 activity in presence of peptide,NHE3 [4],38%
same,jejunal net water transport,"mouse jejunum [5]; mouse, in vivo",4.2 µL/min/cm
same,Isc in CTx treated loops compared to CTx in PBS,[6],"slightly, but not significantly, greater"
same,peak increases in Isc with sequential addition of FSK and carbachol,[6],not different
same,effect on basal NHE3 activity compared to BODIPY alone,NHE3 [7],no significant effect
same,effect on basal NHE3 activity in the absence of BODIPY conjugation,NHE3 [7],Neither CP-1 nor N3SP-1 altered basal NHE3 activity
N3SP-1 N-terminal truncation of 6 aa: PRPSTVEASVSYLLRESASAVCLDMQSLEQRR [Peptide N3SP-1Δ6],Stimulation of NHE3 Activity,NHE3 [8],YES (40%)
same,EC50,NHE3 [8],151 nM
"CP-2: control peptide, N3SP-1 lacking first ten N-terminal amino acids (rabbit NHE3 residues 578-605) (TVEASVSYLLRESASAVCLDMQSLEQRR; UniProt P26432 578-605, looked up, fragment)",FSK-increased intracellular cAMP,adenylate cyclase-cAMP,similar
same,effect on CTx-induced fluid in ileal loops (loop weight/length),mouse ileal loops [11],did not reduce the residual loop volume
same,effect on CTx-stimulated net fluid secretion (loop weight/cm),mouse jejunum [2],Results similar to those with N3SP-1 and CP-1
same,surface zeta potential (electrophoretic light scattering),[12],24.6±0.5 mV
same,nanoparticle diameter (DLS),[12]; aqueous,319±55 nm
same,"residual fluid in presence of Tenapanor, CP2 vs N3SP-1Δ7","mouse ileal loops [10]; nanoparticle conjugated peptide 400 nM, Tenapanor (10 μM) in both incubation periods",no difference in residual fluid
same,"NHE3 activity after FSK, % of same peptide without FSK",NHE3 [13],77.2%
N3SP: general name of the NHE3 stimulatory peptide (N3SP-1 and active truncations) (RPSTVEASVSYLLRESASAVCLDMQSLEQRR) [Peptide N3SP],EC50,NHE3 [14],~150 nM
N3SP-1 N-terminal truncation of 5 aa: TPRPSTVEASVSYLLRESASAVCLDMQSLEQRR [Peptide N3SP-1Δ5],Stimulation of NHE3 Activity,NHE3 [8],YES (39%)
same,EC50,NHE3 [8],154 nM
